Read-outs that look alike come from different tables or passages of the source.
Columns and labels:
[1] = mice; 1 mg/kg romidepsin; BI 894999 at clinically relevant doses; data not shown
Ty-82 = test: Combination viability assay, Bliss analysis (CGI), Ty-82; assay type: cell-based, human; conditions: partner in combination with BI 894999 (10–20 nM)
Procedure: (§1) Viability assays were performed on 96-well flat-bottom microtiter plates and incubated with Alamar Blue solution (Invitrogen, Carlsbad, US-CA). The effects of drug combinations were analysed using the Bliss Independence Model.

14169 BRD4-NUT = test: Cell proliferation assay (Alamar readout), 14169; assay type: cell-based, human; conditions: 96h, read-out: geomean GI50
Procedure: (§2) The NUT Carcinoma cell line Ty-82 was purchased from JCRB Japan No. 1330 and cultivated in RPMI 1640 supplemented with 10% fetal calf serum (FCS). The NC cell lines 10–15, 14169 and 10326 were in-licensed from Christopher French, Brigham & Womens Hospital, Boston, and were cultivated in DMEM supplemented with glutamax and 10% FCS.
as §1
(§3) Dose response curves (96h cell proliferation assay - Alamar readout) on four NC cell lines with BET inhibitor BI 894999. Yellow bar: readout t zero (before adding of compound). Green bar: DMSO control (max proliferation).
(§4) Dose response curves (96h cell proliferation assay - Alamar readout) on four NC cell lines with multiple BET inhibitors.

10326 BRD3-NUT = test: Cell proliferation assay (Alamar readout), 10326; assay type: cell-based, human; conditions: 96h, read-out: geomean GI50
Procedure: as §2, §1, §3, §4

Ty-82 BRD4-NUT = test: Cell proliferation assay (Alamar readout), Ty-82; assay type: cell-based, human; conditions: read-out: geomean GI50
Procedure: as §2, §1, §3, §4

10–15 BRD4-NUT = test: Cell proliferation assay (Alamar readout), 10–15; assay type: cell-based, human; conditions: 96h, read-out: geomean GI50
Procedure: as §2, §1, §3, §4

BRD3-NUT = tested on: T1, BRD3-NUT; test: IHC of 10326 xenograft tumours, NUT protein; assay type: in vivo, mice; conditions: day 21, CCS1477 at either dose (5 or 10 mg/kg)
T1 construct: endogenous in cells; host or cells: 10326 NUT carcinoma cells, in culture (A11) and as subcutaneous xenograft tumours in NOG mice (A26)
Procedure: Immunohistochemistry was performed on formalin-fixed, paraffin-embedded tumour tissue using antibodies against human Ki67(Cell Signaling #9027, 1:400 dilution), anti-human mitochondria (Abcam ab92824, 1:1000 dilution) and against endogenous NUT protein (Cell Signaling #3625, 1:50 dilution) used to detect NUT fusion proteins. Digital images of whole tissue sections were acquired using a Leica SCN400 histology scanner (Leica Microsystems). Ki67-positive index was evaluated using Halo Software V. 3.2 (Indica lab). Regions of interest (ROIs) within the tissue sections were first identified using Halo Software via machine learning technology across pathological samples and tissue control, within these ROIs, nuclei were detected and classified as positive or negative based on IHC staining thresholds.
BRD3-NUT 10326 tumor sections after treatment with 2 mg/kg BI 894999, 5 mg/kg or 10 mg/kg CCS1477 and the combination of both. IHC staining for NUT protein.

[2] = tested on: 10326 xenograft (BRD3-NUT); test: 10326 NC xenograft model; assay type: in vivo
Source text: (§5) Mice were group-housed (8–10 mice per cage) under pathogen-free and controlled environmental conditions (21 ± 1.5 C temperature, 55 ± 10% humidity) in an AAALAC accredited facility and handled according to the institutional, governmental and European Union guidelines (Austrian Animal Protection Laws, GV-SOLAS and FELASA guidelines). Animal studies were approved by the internal ethics committee and the local government committee. Mice were 6- to 8-week-old female CIEA NOG purchased from Taconic, Denmark (NOD.Cg-Prkdc^scid Il2rg^tm1Sug/JicTac). 5 × 10^6 NC tumour cells were injected subcutaneously into the right flank of the mice (1 site per mouse). Mice were randomly distributed between the treatment and the vehicle control when tumours were well established and had reached volumes of 100–150 mm^3. Compounds were suspended in 0.5% Natrosol and administered once daily intra-gastral by gavage needle. Tumour diameters were measured three times a week with a calliper. […] Within each subtopic the p-values of the efficacy parameters were adjusted for multiple comparisons according to Bonferroni–Holm. The p-values of the tolerability parameter remained unadjusted in order not to overlook a possible adverse effect. The level of significance was fixed at α = 5%. An adjusted p-value of less than 0.05 was considered to show a statistically significant difference between the groups. The statistical evaluation was prepared using the software Graph Pad Prism.

[3] = PK analysis in mouse plasma; assay type: in vivo; conditions: CIEA NOG (NOD.Cg-Prkdc^scid Il2rg^tm1Sug/JicTac), oral, mice, 5 mg/kg CCS1477, exposure defined as sufficient for a synergistic effect, read-out: plasma concentration at 6 h after compound application
Source text: PK analysis in mouse plasma. Oral treatment at the indicated doses. Sampling at the indicated timepoints.

BRD4-NUT = tested on: T2, BRD4-NUT; test: Immunofluorescence staining of NUT megadomains, Ty-82; assay type: cell-based, human; conditions: Ty-82; 30 min treatment
T2 construct: endogenous in cells; host or cells: Ty-82 NUT carcinoma cells
Procedure: Cells were seeded on four-well chamber slides (Merck Millipore, #PEZGS0416). After treatment, cells were fixed with 4% PFA (16% Solution, Thermo Fischer #28908 Paraformaldehyde, diluted 1:4 in PBS), permeabilised with 0,1% TX-100 (Sigma #93443, diluted in PBS). After blocking in blocking buffer (10% normal goat serum, Sigma #G9023–10ml, diluted in blocking solution: 2% BSA/PBS, Sigma #A7284–50ml, diluted 1:15 in PBS), the first antibody mAB rabbit anti-NUT 1:1000 (clone C52B1, Cell Signaling #3625) in blocking buffer was added, followed by incubation with the 2nd antibody goat anti-rabbit Alexa*488 1:1000 (Thermo Fisher, #A-11008) in blocking buffer in the dark. Cells were mounted with ProLong Gold Antifade Mountant with DAPI (Thermo Fisher, #P36931) and analysed using a Laser scanning microscope (LSM700). […]
Immunofluorescence staining of NUT megadomains on NC Ty-82 treated with BI with BI 894999 30nM for 1 h, then changed to 10 nM or 5 nM or 2.5 nM or control for 24 h.

[4] = tested on: 10–15 xenograft (BRD4-NUT); test: 10–15 NC xenograft model; assay type: in vivo, mice
Source text: as §5

[5] = tested on: Ty-82 xenograft (BRD4-NUT); test: Ty-82 NC xenograft model; assay type: in vivo, mice
Source text: as §5

10–15 xenografts = tested on: 10–15 xenografts; parameters: method as in PMID 32371576; conditions: mice bearing 10–15 xenografts; tumour regression not described; cited from earlier work

**Q.** Which “benefit when added to BI 894999” value [1] does the source give for `C/C=C1\NC(=O)[C@H]2CSSCC/C=C/[C@H](CC(=O)N[C@H](C(C)C)C(=O)N2)OC(=O)[C@H](C(C)C)NC1=O` [Romidepsin] here?
**A.** did not show benefit

**Q.** What about the “cell growth inhibition >100% reached at clinically achievable concentrations” value (shortened to “cell growth inhibition >100% reached”) (Ty-82) of the same molecule?
**A.** accomplished

**Q.** Which results are given for `Cc1sc2c(c1C)C(c1ccc(Cl)cc1)=N[C@@H](CC(=O)OC(C)(C)C)c1nnc(C)n1-2` [JQ1]?
**A.** GI50 (14169 BRD4-NUT): 49.2 nM; GI50 (10326 BRD3-NUT): 43.2 nM; GI50 (Ty-82 BRD4-NUT; 96h): 110 nM; GI50 (10–15 BRD4-NUT): 84.4 nM

**Q.** For `CNC(=O)N1CCc2c(c(N3CCCc4cc(-c5cnn(C)c5)c(C(F)F)cc43)nn2C2CCOCC2)C1` [GNE-781], which “cell growth inhibition >100% reached” value (Ty-82) is on record?
**A.** accomplished

**Q.** What does the source list for `CO[C@H]1CC[C@H](n2c([C@@H]3CCCC(=O)N3c3ccc(F)c(F)c3)nc3cc(-c4c(C)noc4C)ccc32)CC1` [CCS1477]?
**A.** GI50 (14169 BRD4-NUT; Homo sapiens): 62.9 nM; loss of speckled megadomain localisation (NUT staining) (BRD3-NUT): not seen; TGI ([2]; 5 mg/kg CCS1477): 65%; TGI ([2]; 10 mg/kg CCS1477): 88%; GI50 (10326 BRD3-NUT; Homo sapiens): 22.7 nM; concentration at 6 h [3]: 200 to 300 nM; concentration at which BRD4-NUT detaches from chromatin / is re-distributed (BRD4-NUT): > 1000 nM; GI50 (Ty-82 BRD4-NUT; Homo sapiens, TY82, 96h): 38.5 nM; TGI ([4]; 5 mg/kg CCS1477): 24%; TGI ([4]; 10 mg/kg CCS1477): 30%; GI50 (10–15 BRD4-NUT; Homo sapiens): 32.9 nM; TGI (tumour growth inhibition) ([5]; 5 mg/kg CCS1477 p.o. daily): 29%; TGI (tumour growth inhibition) ([5]; 10 mg/kg CCS1477 p.o. daily): 11%; cell growth inhibition >100% reached at clinically achievable concentrations (Ty-82): accomplished

**Q.** For `Cc1[nH]c2ccccc2c1CCNCc1ccc(/C=C/C(=O)NO)cc1` [Panobinostat], which “cell growth inhibition >100% reached” value (Ty-82) is on record?
**A.** accomplished

**Q.** With `CNC(=O)Nc1ccc2c(c1)CC[C@@]21OC(=O)N(CC(=O)N(Cc2ccc(F)cc2)[C@@H](C)C(F)(F)F)C1=O` [A485] as the molecule, how does the “cell growth inhibition >100% reached” value (Ty-82) read?
**A.** not

**Q.** For `Cc1cc(-c2ccc3nc(C4CCOCC4)n(CCOC(F)(F)F)c3c2)cn(C)c1=O` [NEO2734], which GI50 (14169 BRD4-NUT) is on record?
**A.** 20.4 nM

**Q.** And the GI50 (10326 BRD3-NUT)?
**A.** 11.2 nM

**Q.** And the “concentration at which BRD4-NUT detaches from chromatin / is re-distributed” value (BRD4-NUT)?
**A.** > 100 nM

**Q.** What about the “efficacy compared to BETi alone” value (10–15 xenografts) of the same molecule?
**A.** greater growth inhibition and significantly improved survival

**Q.** And the GI50 (Ty-82 BRD4-NUT; 96h)?
**A.** 26.5 nM

**Q.** And the GI50 (10–15 BRD4-NUT)?
**A.** 22.6 nM

**Q.** Which GI50 (14169 BRD4-NUT; Homo sapiens) does the source give for `CCNC(=O)C[C@@H]1N=C(c2ccc(Cl)cc2)c2cc(OC)ccc2-n2c(C)nnc21` [GSK525762] here?
**A.** 55 nM

**Q.** And the GI50 (10326 BRD3-NUT; Homo sapiens)?
**A.** 43.6 nM

**Q.** And the GI50 (Ty-82 BRD4-NUT; Homo sapiens, TY82, 96h)?
**A.** 154 nM

**Q.** And the GI50 (10–15 BRD4-NUT; Homo sapiens)?
**A.** 113 nM
